# In patent publication US12304932B2, “PACAP stabilized peptide” (SENJU PHARMACEUTICAL CO., LTD., priority 2017, dated 2025):
# Square brackets hold non-standard residues; d marks the D form. Peptide text beside a SMILES is read from it. Ala(1H-tetrazol-5-yl) = N[C@@H](Cc1nnn[nH]1)C(=O)O
# Assay: Peptide stability tests 2 and 3: Tris buffer pH 7.0, stored at 60° C., HPLC conditions 2
# Assay type: physicochemical
# Settings: 100 μM peptide, Tris buffer pH 7.0, 60° C.; for survival rate after correction for water, 60° C., 2-week storage: 2 weeks
# Protocol: (§1) Peptides 1, 2 and 6 to 9 synthesized in Example 2 were weighed and dissolved in Tris buffer (pH 7.0) to prepare 1.0 mM peptide solutions. The solutions were filtered with a Chromatdisk (product of Merck Millipore, Millex-GV, 0.22 μm). Each filtrate was diluted to 100 μM with Tris buffer (pH 7.0) and dispensed into a tube (Protein LoBind Tube by Eppendorf Co.). The prepared peptide solutions were incubated for 1 week or 2 weeks in a 60° C. thermostatic bath to obtain stored samples. A simultaneously prepared sample among the peptide solutions that was not stored was used as a standard sample (initial sample). The standard sample and the stored samples were stored at −30° C. until sample analysis.
# Each stored sample was measured under the following HPLC analysis conditions 2, and the survival rate after correction for water for each peptide among the stored samples was calculated in the same manner as Example 3.
# Column: XSelect CSH C18 by Waters Co., 5 μm, 4.6×250 mm
# Guard column: XSelect CSH C18 by Waters. Co., 5 μm, 4.6×20 mm Guard Cartridge
# Detection wavelength: 220 nm
# Mobile phase A: 0.1% formic acid in water
# Mobile phase B: 0.1% formic acid in acetonitrile
# Measuring time: 20 minutes
# Measuring sample injection rate: 50 μL
# Column temperature: 40° C.
# Mobile phase delivery: The mixing ratio of mobile phase A and mobile phase B was varied as shown in Table 5 for linear concentration gradient control.
# as §1, with “Peptides 12 to 25, 27” for “Peptides 1, 2”, “and 28” for “and 6 to 9”, “for one” for “for 1”
# The survival rate after correction for water for each peptide among the stored samples was calculated in the same manner as Example 4, and the results are shown in Table 7.
# as §1, with “29” for “1, 2 and 6”, “34” for “9”, “for” for “for 1 week or”
# The survival rate after correction for water for each peptide among the stored samples was calculated in the same manner as Example 4, and the results are shown in Table 7-2.
SMILES,"survival rate after correction for water, 60° C., 1-week storage [%]","survival rate after correction for water, 60° C., 2-week storage [%]"
CC[C@H](C)[C@H](NC(=O)CNC(=O)[C@H](Cc1nnn[nH]1)NC(=O)[C@H](C)NC(=O)[C@H](Cc1c[nH]cn1)NC(C)=O)C(=O)N[C@@H](Cc1ccccc1)C(=O)N[C@H](C(=O)N[C@@H](Cc1nnn[nH]1)C(=O)N[C@@H](CO)C(=O)N[C@@H](Cc1ccc(O)cc1)C(=O)N[C@@H](CO)C(=O)N[C@@H](CCCNC(=N)N)C(=O)N[C@@H](Cc1ccc(O)cc1)C(=O)N[C@@H](CCCNC(=N)N)C(=O)N[C@@H](CCCCN)C(=O)N[C@@H](CCC(N)=O)C(=O)N[C@@H](CC(C)C)C(=O)N[C@@H](C)C(=O)N[C@H](C(=O)N[C@@H](CCCCN)C(=O)N[C@@H](CCCCN)C(=O)N[C@@H](Cc1ccc(O)cc1)C(=O)N[C@@H](CC(C)C)C(=O)N[C@@H](C)C(=O)N[C@@H](C)C(=O)N[C@H](C(=O)N[C@@H](CC(C)C)C(N)=O)C(C)C)C(C)C)[C@@H](C)O [Peptide 14] (Ac-HA[Ala(1H-tetrazol-5-yl)]GIFT[Ala(1H-tetrazol-5-yl)]SYSRYRKQLAVKKYLAAVL-NH2),96.7,94.5
CC[C@H](C)[C@H](NC(=O)CNC(=O)[C@H](Cc1nnn[nH]1)NC(=O)[C@H](CO)NC(=O)[C@H](Cc1c[nH]cn1)NC(C)=O)C(=O)N[C@@H](Cc1ccccc1)C(=O)N[C@H](C(=O)N[C@@H](Cc1nnn[nH]1)C(=O)N[C@@H](C)C(=O)N[C@@H](Cc1ccc(O)cc1)C(=O)N[C@@H](CO)C(=O)N[C@@H](CCCNC(=N)N)C(=O)N[C@@H](Cc1ccc(O)cc1)C(=O)N[C@@H](CCCNC(=N)N)C(=O)N[C@@H](CCCCN)C(=O)N[C@@H](CCC(N)=O)C(=O)N[C@@H](CC(C)C)C(=O)N[C@@H](C)C(=O)N[C@H](C(=O)N[C@@H](CCCCN)C(=O)N[C@@H](CCCCN)C(=O)N[C@@H](Cc1ccc(O)cc1)C(=O)N[C@@H](CC(C)C)C(=O)N[C@@H](C)C(=O)N[C@@H](C)C(=O)N[C@H](C(=O)N[C@@H](CC(C)C)C(N)=O)C(C)C)C(C)C)[C@@H](C)O [Peptide 15] (Ac-HS[Ala(1H-tetrazol-5-yl)]GIFT[Ala(1H-tetrazol-5-yl)]AYSRYRKQLAVKKYLAAVL-NH2),97.3,94.9
CC[C@H](C)[C@H](NC(=O)CNC(=O)[C@H](Cc1nnn[nH]1)NC(=O)[C@H](CO)NC(=O)[C@H](Cc1c[nH]cn1)NC(C)=O)C(=O)N[C@@H](Cc1ccccc1)C(=O)N[C@H](C(=O)N[C@@H](Cc1nnn[nH]1)C(=O)N[C@@H](CO)C(=O)N[C@@H](Cc1ccc(O)cc1)C(=O)N[C@@H](C)C(=O)N[C@@H](CCCNC(=N)N)C(=O)N[C@@H](Cc1ccc(O)cc1)C(=O)N[C@@H](CCCNC(=N)N)C(=O)N[C@@H](CCCCN)C(=O)N[C@@H](CCC(N)=O)C(=O)N[C@@H](CC(C)C)C(=O)N[C@@H](C)C(=O)N[C@H](C(=O)N[C@@H](CCCCN)C(=O)N[C@@H](CCCCN)C(=O)N[C@@H](Cc1ccc(O)cc1)C(=O)N[C@@H](CC(C)C)C(=O)N[C@@H](C)C(=O)N[C@@H](C)C(=O)N[C@H](C(=O)N[C@@H](CC(C)C)C(N)=O)C(C)C)C(C)C)[C@@H](C)O [Peptide 16] (Ac-HS[Ala(1H-tetrazol-5-yl)]GIFT[Ala(1H-tetrazol-5-yl)]SYARYRKQLAVKKYLAAVL-NH2),98.1,93.5
CC[C@H](C)[C@H](NC(=O)CNC(=O)[C@H](Cc1nnn[nH]1)NC(=O)[C@H](CO)NC(=O)[C@H](Cc1c[nH]cn1)NC(C)=O)C(=O)N[C@@H](Cc1ccccc1)C(=O)N[C@H](C(=O)N[C@@H](Cc1nnn[nH]1)C(=O)N[C@@H](CO)C(=O)N[C@@H](Cc1ccc(O)cc1)C(=O)N[C@@H](CO)C(=O)N[C@@H](CCCNC(=N)N)C(=O)N[C@@H](Cc1ccc(O)cc1)C(=O)N[C@@H](CCCNC(=N)N)C(=O)N[C@@H](CCCCN)C(=O)N[C@@H](C)C(=O)N[C@@H](CC(C)C)C(=O)N[C@@H](C)C(=O)N[C@H](C(=O)N[C@@H](CCCCN)C(=O)N[C@@H](CCCCN)C(=O)N[C@@H](Cc1ccc(O)cc1)C(=O)N[C@@H](CC(C)C)C(=O)N[C@@H](C)C(=O)N[C@@H](C)C(=O)N[C@H](C(=O)N[C@@H](CC(C)C)C(N)=O)C(C)C)C(C)C)[C@@H](C)O [Peptide 17] (Ac-HS[Ala(1H-tetrazol-5-yl)]GIFT[Ala(1H-tetrazol-5-yl)]SYSRYRKALAVKKYLAAVL-NH2),97.8,93.4
CC[C@H](C)[C@H](NC(=O)CNC(=O)[C@H](Cc1nnn[nH]1)NC(=O)[C@H](CO)NC(=O)[C@H](Cc1c[nH]cn1)NC(C)=O)C(=O)N[C@@H](Cc1ccccc1)C(=O)N[C@H](C(=O)N[C@@H](Cc1nnn[nH]1)C(=O)N[C@@H](CO)C(=O)N[C@@H](Cc1ccc(O)cc1)C(=O)N[C@@H](CO)C(=O)N[C@@H](CCCNC(=N)N)C(=O)N[C@@H](Cc1ccc(O)cc1)C(=O)N[C@@H](CCCNC(=N)N)C(=O)N[C@@H](CCCCN)C(=O)N[C@@H](CCC(N)=O)C(=O)N[C@@H](C)C(=O)N[C@@H](C)C(=O)N[C@H](C(=O)N[C@@H](CCCCN)C(=O)N[C@@H](CCCCN)C(=O)N[C@@H](Cc1ccc(O)cc1)C(=O)N[C@@H](CC(C)C)C(=O)N[C@@H](C)C(=O)N[C@@H](C)C(=O)N[C@H](C(=O)N[C@@H](CC(C)C)C(N)=O)C(C)C)C(C)C)[C@@H](C)O [Peptide 18] (Ac-HS[Ala(1H-tetrazol-5-yl)]GIFT[Ala(1H-tetrazol-5-yl)]SYSRYRKQAAVKKYLAAVL-NH2),96.7,90.6
CC[C@H](C)[C@H](NC(=O)CNC(=O)[C@H](Cc1nnn[nH]1)NC(=O)[C@H](CO)NC(=O)[C@H](Cc1c[nH]cn1)NC(C)=O)C(=O)N[C@@H](Cc1ccccc1)C(=O)N[C@H](C(=O)N[C@@H](Cc1nnn[nH]1)C(=O)N[C@@H](CO)C(=O)N[C@@H](Cc1ccc(O)cc1)C(=O)N[C@@H](CO)C(=O)N[C@@H](CCCNC(=N)N)C(=O)N[C@@H](Cc1ccc(O)cc1)C(=O)N[C@@H](CCCNC(=N)N)C(=O)N[C@@H](CCCCN)C(=O)N[C@@H](CCC(N)=O)C(=O)N[C@@H](CC(C)C)C(=O)N[C@@H](C)C(=O)N[C@@H](C)C(=O)N[C@@H](CCCCN)C(=O)N[C@@H](CCCCN)C(=O)N[C@@H](Cc1ccc(O)cc1)C(=O)N[C@@H](CC(C)C)C(=O)N[C@@H](C)C(=O)N[C@@H](C)C(=O)N[C@H](C(=O)N[C@@H](CC(C)C)C(N)=O)C(C)C)[C@@H](C)O [Peptide 19] (Ac-HS[Ala(1H-tetrazol-5-yl)]GIFT[Ala(1H-tetrazol-5-yl)]SYSRYRKQLAAKKYLAAVL-NH2),95.8,92.7
CC[C@H](C)[C@H](NC(=O)CNC(=O)[C@H](Cc1nnn[nH]1)NC(=O)[C@H](CO)NC(=O)[C@H](Cc1c[nH]cn1)NC(C)=O)C(=O)N[C@@H](Cc1ccccc1)C(=O)N[C@H](C(=O)N[C@@H](Cc1nnn[nH]1)C(=O)N[C@@H](CO)C(=O)N[C@@H](Cc1ccc(O)cc1)C(=O)N[C@@H](CO)C(=O)N[C@@H](CCCNC(=N)N)C(=O)N[C@@H](Cc1ccc(O)cc1)C(=O)N[C@@H](CCCNC(=N)N)C(=O)N[C@@H](CCCCN)C(=O)N[C@@H](CCC(N)=O)C(=O)N[C@@H](CC(C)C)C(=O)N[C@@H](C)C(=O)N[C@H](C(=O)N[C@@H](CCCCN)C(=O)N[C@@H](CCCCN)C(=O)N[C@@H](Cc1ccc(O)cc1)C(=O)N[C@@H](CC(C)C)C(=O)N[C@@H](C)C(=O)N[C@@H](C)C(=O)N[C@H](C(=O)N[C@@H](C)C(N)=O)C(C)C)C(C)C)[C@@H](C)O [Peptide 20] (Ac-HS[Ala(1H-tetrazol-5-yl)]GIFT[Ala(1H-tetrazol-5-yl)]SYSRYRKQLAVKKYLAAVA-NH2),93.9,91.8
